{"source": "patent US8337447B2", "about": "“Device for delivery of antifibrotic agents and method” (priority 2006, dated 2012)", "test_system": "human conjunctival fibroblasts", "assay": "Polymer cytotoxicity in vitro, toluidine blue staining after 7 days of culture", "assay_type": "cell-based", "settings": "MMC incorporated in salt-free P-HEMA hydrogel (Procedure 2), exponential fit, r2 0.95", "description": "Measurement of polymer cytotoxicity in vitro: A single 8 mm disk of sterile polymer was affixed to the center of each 60 mm tissue culture dish with clear RTV silicone cement. The silicone cement was sterile as it came from the tube and care was taken during this procedure to maintain the sterility of both the polymer and the tissue culture dish. The cement was allowed to cure for 1-2 hours in a sterile environment, until no odor of acetic acid could be detected. […] The culture medium was removed and the cell layer was gently washed 3 times with 5 ml of phosphate-buffered saline. […] In some cases, the solutions had to be diluted with 2% aqueous sodium dodecyl sulfate to bring the absorbance within the linear range of the spectrophotometer. […]\nOnce these parameters had been determined, the study was repeated with early passage cultures human conjunctival fibroblasts, the cell type against which these slow release polymers will ultimately be targeted. […]\nA single 8 mm disk of polymer was affixed to each culture dish with silicone cement and cells were fixed and stained 7 days after inoculation, as described in Methods. After solubilization of the cell-bound dye, the color (measured as absorbance at 650 nm) was a measure of the number of cells in each dish. […]", "data": [{"smiles": "CO[C@@]12[C@H](COC(N)=O)C3=C(C(=O)C(C)=C(N)C3=O)N1C[C@@H]1N[C@@H]12", "note": "[MMC, mitomycin C]", "values": [{"measurement": "concentration of MMC that inhibited 50% of cell proliferation (IC50)", "value": 0.15, "unit": "mg/g dried gel"}]}]}
